One assay relates to hOC promoter. Description: hOC promoter-luciferase reporter activity in transfected cells. The settings on record: C4-2B cells. Format: cell-based, human. The text has this: Plasmid Construction. Genomic DNA was used in the PCR of the 0.8-kb hOC promoter inserting KpnI and XhoI sites, subsequently cloned into pGL3-Basic-luciferase reporter vector (Promega, Madison, Wis.) as described before (9). The deletion constructs, ΔA [374 bp upstream of AP1/VDRE (AV) element], ΔTst-1 (POU-factor Tst-1/Oct-6 binding site), ΔCRE (cAMP-responsive element) and ΔIRF-1 (interferon regulatory factor-i binding site) in hOC promoter/pGL3 were generated by recombinant PCR technique. The point mutation plasmids in CRE (from -643 to -636 in hOC promoter, 5′-[…]-3′) were constructed with a QuikChange Site-Directed Mutagenesis Kit (Stratagene). The mutation constructs (see below) are one-point substitution mutants, Mut1 (-642 G→T), Mut2 (-641 A→C), Mut3 (-640 C→A), Mut4 (-639 C→A) and Mut5 (-638 T→G), a two-point substitution mutant, Mut6 (-640 and -639 CC→AA), and a two-point deletion construct, Mut7 (-640 and -639 CC→XX). The 1.5-kb hBSP promoter construct prepared in the pGL3-luciferase reporter vector has been described previously (36). The single deletion constructs ΔCRE1 (-79 to -72) and ΔCRE2 (-674 to -667), and a double deletion construct ΔCRE2/CRE1 in the hBSP promoter/pGL3-luciferase plasmid were generated by recombinant PCR technique. All plasmid constructs were confirmed by DNA sequencing.
Transfection and Luciferase Activity Assay. Cells were trypsinized and seeded at a density of 1.5×10^5 cells/well (LNCaP, C4-2B, DU145 and ARCaP) and 1.0×10^5 cells/well (PC3 and MG63) in 12-well plates 24 h before transfection. Plasmid DNAs were introduced into cells by complexing with a commercial reagent DOTAP (Roche Molecular Biochemicals) according to the manufacturer's protocol. Each transfection reaction contained 1.25 μg of tested DNA constructs and 0.25 μg of the transfection efficiency control CMV promoter-driven β-galactosidase plasmid DNA. After 6 h transfection, DNA-liposome mixtures were replaced by fresh T-medium or CM. Tansfected cells were harvested and lysed in 1× Reporter Lysis buffer (Promega) after 36 h additional incubation. Cell lysates were vortexed for 15 s and spun for 10 min. For luciferase activity assay, 20 μl of the lysate supernatant was mixed with 100 μl of the luciferase substrate (Promega) and detected by a luminometer (Monolight 3010, luminometer PharMingen, San Diego, Calif.). For β-galactosidase activity assay, 100 μl of the supernatant was mixed with 100 μl of 2×β-galactosidase substrate [200 mM sodium phosphate buffer, pH 7.3, 2 mM MgCl2, 100 mM β-mercaptoethanol and 1.33 mg/ml o-nitrophenyl-β-D-galactopyranoside (ONPG)], and incubated at 37° C. for 30 min. β-galactosidase activity was detected by Microplate spectrophotometer (Molecular Devices Corp., Sunnyvale, Calif.) at 405 nm wavelength. Data were presented as normalized luciferase activity (means±standard deviations), defined as luciferase activity normalized to internal control β-galactosidase activity for transfection efficiency. All studies were performed in three independent experiments with duplicate assays.
A general note: A reporter such as luciferase makes a cellular process visible.

Assay [1] has as its system CRE-nuclear protein (CREB) complexes. Kind of assay: Electrophoretic mobility shift assay (EMSA) with 32P-labeled CRE probe and nuclear extracts of treated cells. In kind it is cell-based, human. The conditions noted are these: nuclear extracts of C4-2B cells; H-89 10^−6 M. On the procedure: Electrophoretic Mobility Shift Assay (EMSA). A LNCaP-lineaged metastatic human prostate cancer cell line, C4-2B, and the human osteosarcoma cell line MG63 were plated in 15-cm diameter tissue culture dishes in T-medium (with 5% serum) until 80% confluence. Cells were then switched to 1-day complete serum-free condition and then treated with or without ARCaP CM (15 μg/ml) or FSK (10^−5 M) for an additional 16 h. Nuclear extracts were prepared from C4-2B and MG63 for EMSA as described by Ausubel et al (37). Briefly, cells were washed with cold PBS twice, harvested and homogenized in hypotonic buffer (10 mM HEPES, pH 7.9, 1.5 mM MgCl2, 10 mM KCl, 0.5 mM DTT and 0.2 mM PMSF). After centrifugation, the nuclear pellets were stirred and incubated for 30 min in high-salt buffer (20 mM HEPES, pH 7.9, 25% glycerol, 1.5 mM MgCl2, 1.2 M KCl, 0.2 mM EDTA, 0.5 mM DTT and 0.2 mM PMSF) on ice. The nuclear pellets were centrifuged, and the nuclear extract supernatants were dialyzed twice against dialysis buffer (20 mM HEPES, pH 7.9, 20% glycerol, 100 mM KCl, 0.2 mM EDTA, 0.5 mM DTT and 0.2 mM PMSF) overnight. The concentration of nuclear proteins was determined by the Bradford method using Coomassie plus protein reagent (Pierce). Synthetic oligonucleotides were purified by PAGE. Appropriate pairs were annealed by heating up to 95° C. for 10 min and naturally cooled down to room temperature. […]
(In general: Mobility shift assays separate free from complexed probe on a gel.)

As to `O=S(=O)(NCCNCC=Cc1ccc(Br)cc1)c1cccc2cnccc12` [H-89, N-[2-(p-bromocinnamylamino)ethyl]-5-isoquinolinesulfonamide], the “ARCaP CM-mediated activation of hOC promoter activity” value in the assay with hOC promoter (H-89 10^−6 M 2 h, then ARCaP CM 15 μg/ml 16 h) is given as “inhibited”. Further, the “PMA-induced hOC promoter activation” value with hOC promoter (H-89 10^−6 M 2 h, then PMA 10^−6 M 16 h) is “not blocked”. Also, the “db cAMP-mediated activation of hOC promoter activity” value in the assay on hOC promoter (H-89 10^−6 M 2 h, then db cAMP 10^−3 M 16 h) is “inhibited”. In addition, the “CM-induced hOC promoter activity” value in the assay on hOC promoter (H-89 10^−6 M, CM harvested from C4-2B, DU145, PC3 and MG63 cell lines) is “nearly abolished”. The “FSK-stimulated hOC promoter activity” value with hOC promoter (H-89 10^−8 to 10^−6 M for 2 h, then FSK 10^−6 M 16 h, concentration-dependent) is “inhibited”. The “ARCaP CM- and FSK-induced CRE binding to nuclear proteins” value in assay [1] was “abolish”.

The record behind these values is patent US20070078085A1, “Methods and compositions for the utilization and targeting of osteomimicry” (priority 2004, published 2007).
